Reference: patent US8735387B2, “Oxazolopyrimidines as Edg-1 receptor agonists” (Sanofi, priority 2008, dated 2014)

Biological target: T1, human Edg-1 receptor (Homo sapiens, UniProt P21453)
T1 construct: expressed in transfected cells; membrane preparation
Test: GTP-γ-S assay using human Edg-1 receptors (scintillation proximity assay, membrane preparation from CHO Flp-In cell line)
Assay type: biochemical
Details: example compound at 10 μM; relative to 10 μM S1P; GTP-γ-S SPA, human Edg-1 membranes
Procedure, shortened: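 Membranes came from Flp-In CHO cells constitutively expressing human Edg-1 carrying an N-terminal FLAG tag. Compound-induced receptor activation was read as GTP-γ-S binding in a scintillation proximity format.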

T1 sequence (P21453 whole entry): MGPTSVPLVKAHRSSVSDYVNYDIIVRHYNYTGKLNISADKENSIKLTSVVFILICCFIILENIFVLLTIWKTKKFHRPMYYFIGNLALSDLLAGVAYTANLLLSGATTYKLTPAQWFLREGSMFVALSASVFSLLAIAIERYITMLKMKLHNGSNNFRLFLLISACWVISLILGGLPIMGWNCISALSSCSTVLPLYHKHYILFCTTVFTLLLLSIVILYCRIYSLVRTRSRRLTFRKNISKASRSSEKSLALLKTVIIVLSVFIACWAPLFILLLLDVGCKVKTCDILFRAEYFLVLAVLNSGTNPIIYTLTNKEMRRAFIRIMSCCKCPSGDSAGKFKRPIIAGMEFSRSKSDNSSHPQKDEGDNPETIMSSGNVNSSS

Point of comparison: `CCCOc1nc(Cc2ccc(Cl)cc2)nc2oc(-c3cc(C)c(OCC(=O)NCCO)c(C)c3)nc12` [Example 244], “% Activation (Edg-1 receptor activation in percent of the activation by 10 μM S1P)” value 97%. Against it:
- CCCOc1nc(Cc2ccc(Cl)cc2)nc2oc(-c3ccc(Cl)nc3)nc12 [Example 201] — lower, 68%
- CCCOc1nc(CN2CC[C@H](F)C2)nc2oc(-c3cccc(F)c3)nc12 [Example 202] — higher, 109%
- CCCOc1nc(Cn2cnc(C#N)n2)nc2oc(-c3cccc(F)c3)nc12 [Example 203] — lower, 79%
- CCCOc1nc(Cn2cncn2)nc2oc(-c3cccc(F)c3)nc12 [Example 204] — lower, 79%
- CC(C)Oc1nc(CN2CCOCC2)nc2oc(-c3cccc(F)c3)nc12 [Example 205] — higher, 115%
- CCCOc1nc(Cc2ccc(Cl)cc2)nc2oc(-c3cc(C)c(OCC(O)CNC4CCN(CC(C)C)CC4)c(C)c3)nc12 (stereo not drawn) [Example 206] — lower, 67%
- CCCOc1nc(Cc2ccc(Cl)cc2)nc2oc(-c3ccc(OCC(O)CN)c(Cl)c3)nc12 (stereo not drawn) [Example 207] — higher, 302%
- CCOc1nc(Cc2ccc(Cl)cc2)nc2oc(-c3cc(C)c(OCC(O)CNC(C)=O)c(C)c3)nc12 (stereo not drawn) [Example 208] — higher, 111%
- CCCOc1nc(Cc2ccc(Cl)cc2)nc2oc(-c3cc(C)c(OCC(O)CNCc4ccccc4)c(C)c3)nc12 (stereo not drawn) [Example 209] — higher, 110%
- CCCOc1nc(Cc2ccc(Cl)cc2)nc2oc(-c3ccc(OCC(O)CNCc4ccccc4)c(Cl)c3)nc12 (stereo not drawn) [Example 210] — lower, 94%
- CCCOc1nc(Cc2ccc(Cl)cc2)nc2oc(-c3ccc(OCC(O)CNC4CCCCC4)c(Cl)c3)nc12 (stereo not drawn) [Example 211] — higher, 112%
- CCCOc1nc(Cc2ccc(Cl)cc2)nc2oc(-c3cc(C)c(OCC(O)CNC(=O)CO)c(C)c3)nc12 (stereo not drawn) [Example 212] — lower, 78%
- CCCOc1nc(Cc2ccccc2)nc2oc(-c3cccc(OCCO)c3)nc12 [Example 213] — higher, 101%
- CCCOc1nc(Cc2ccc(Cl)cc2)nc2oc(-c3cc(C)c(OCC(O)CNC(C)=O)c(C)c3)nc12 (stereo not drawn) [Example 214] — higher, 106%
- CCCOc1nc(Cc2ccccc2)nc2oc(-c3cccc(O)c3)nc12 [Example 215] — lower, 96%
- CCCC(=O)NCC(O)COc1c(C)cc(-c2nc3c(OCC)nc(Cc4ccc(Cl)cc4)nc3o2)cc1C (stereo not drawn) [Example 216] — higher, 105%
- CCOc1nc(Cc2ccc(Cl)cc2)nc2oc(-c3cc(C)c(OCC(O)CNC(=O)CC(C)C)c(C)c3)nc12 (stereo not drawn) [Example 217] — lower, 78%
- CCCOc1nc(Cc2ccc(Cl)cc2)nc2oc(-c3ccc(OC)c(Cl)c3)nc12 [Example 218] — lower, 42%
- CCCOc1nc(Cc2ccc(Cl)cc2)nc2oc(-c3ccc(OCC(=O)O)c(Cl)c3)nc12 [Example 219] — higher, 107%
- CCCOc1nc(Cc2ccc(Cl)cc2)nc2oc(-c3cc(C)c(OCC(O)CNC(=O)CC(C)C)c(C)c3)nc12 (stereo not drawn) [Example 220] — lower, 69%
- CCOc1nc(Cc2ccc(Cl)cc2)nc2oc(-c3cc(C)c(OCC(O)CNCC(c4cccnc4)N(C)C)c(C)c3)nc12 (stereo not drawn) [Example 221] — lower, 84%
- CCCOc1nc(Cc2ccc(Cl)cc2)nc2oc(-c3cc(C)c(OCCCNCCS(N)(=O)=O)c(C)c3)nc12 [Example 223] — lower, 92%
- CCCOc1nc(Cc2ccc(Cl)cc2)nc2oc(-c3cc(C)c(OCCCNCCC(=O)O)c(C)c3)nc12 [Example 224] — higher, 113%
- CCCOc1nc(Cc2ccc(Cl)cc2)nc2oc(-c3cc(C)c(OCCCNCCO)c(C)c3)nc12 [Example 225] — higher, 100%
- CCOc1nc(Cc2ccc(Cl)cc2)nc2oc(-c3cc(C)c(OCC(=O)N[C@@H](CO)C(=O)O)c(C)c3)nc12 [Example 226] — higher, 98%
- CCCOc1nc(Cc2ccc(Cl)cc2)nc2oc(-c3cc(C)c(OCCCNCc4nnn[nH]4)c(C)c3)nc12 [Example 227] — higher, 142%
- CCOc1nc(Cc2ccc(Cl)cc2)nc2oc(-c3cc(C)c(OCC(=O)N4CC(C(=O)O)C4)c(C)c3)nc12 [Example 228] — higher, 107%
- CCCOc1nc(Cc2ccc(Cl)cc2)nc2oc(-c3cc(C)c(OCCCN[C@@H](CCSC)C(=O)OC)c(C)c3)nc12 [Example 229] — lower, 70%
- CCCOc1nc(Cc2ccc(Cl)cc2)nc2oc(-c3cc(C)c(OCCCNCCC(=O)OC(C)(C)C)c(C)c3)nc12 [Example 230] — higher, 101%
- CCCOc1nc(Cc2ccc(Cl)cc2)nc2oc(-c3cc(C)c(OCC(=O)N4CC[C@H](O)C4)c(C)c3)nc12 [Example 231] — higher, 104%
- CCCOc1nc(Cc2ccc(Cl)cc2)nc2oc(-c3cc(C)c(OCC(=O)N4CC[C@@H](O)C4)c(C)c3)nc12 [Example 232] — higher, 125%
- CCCOc1nc(Cc2ccc(Cl)cc2)nc2oc(-c3cc(C)c(OCC(=O)OCC)c(C)c3)nc12 [Example 233] — lower, 79%
- CCOc1nc(Cc2ccc(Cl)cc2)nc2oc(-c3cc(C)c(OCC(=O)NCCN4CCOCC4)c(C)c3)nc12 [Example 234] — higher, 106%
- CCCOc1nc(Cc2ccc(Cl)cc2)nc2oc(-c3cc(C)c(OCCc4c(C)noc4C)c(C)c3)nc12 [Example 235] — lower, 59%
- CCOc1nc(Cc2ccc(Cl)cc2)nc2oc(-c3cc(C)c(OCC(O)CN4CCOCC4)c(C)c3)nc12 (stereo not drawn) [Example 236] — higher, 102%
- CCCOc1nc(Cc2ccc(Cl)cc2)nc2oc(-c3cc(C)c(OCC(O)CNCCC(=O)O)c(C)c3)nc12 (stereo not drawn) [Example 237] — higher, 115%
- CCOc1nc(Cc2ccc(Cl)cc2)nc2oc(-c3cc(C)c(OCC(O)CN(CC)CC)c(C)c3)nc12 (stereo not drawn) [Example 238] — lower, 71%
- CCOc1nc(Cc2ccc(Cl)cc2)nc2oc(-c3cc(C)c(OCC(=O)N4CCC(C(=O)O)C4)c(C)c3)nc12 (stereo not drawn) [Example 239] — lower, 86%
- CCCOc1nc(Cc2ccc(Cl)cc2)nc2oc(-c3cc(C)c(OCC(=O)NCCC(=O)O)c(C)c3)nc12 [Example 241] — higher, 128%
- CCCOc1nc(Cc2ccc(Cl)cc2)nc2oc(-c3cc(C)c(OCC(=O)N4CC(C(=O)O)C4)c(C)c3)nc12 [Example 242] — higher, 106%
- CCCOc1nc(Cc2ccc(Cl)cc2)nc2oc(-c3cc(C)c(OCC(=O)N4CCC(C(=O)O)C4)c(C)c3)nc12 (stereo not drawn) [Example 243] — higher, 106%
- CCCOc1nc(Cc2ccc(Cl)cc2)nc2oc(-c3cc(C)c(OCC(=O)N4CCC[C@H]4C(=O)O)c(C)c3)nc12 [Example 245] — higher, 144%
- CCOc1nc(Cc2ccc(Cl)cc2)nc2oc(-c3cc(C)c(OCC(=O)N4CC(C(=O)OC)C4)c(C)c3)nc12 [Example 246] — higher, 111%
- CCCOc1nc(Cc2ccc(Cl)cc2)nc2oc(-c3cc(C)c(OCC(=O)OCC(=O)O)c(C)c3)nc12 [Example 247] — higher, 110%
- CCCOc1nc(Cc2ccc(Cl)cc2)nc2oc(-c3cc(C)c(OCC(=O)OC)c(C)c3)nc12 [Example 248] — lower, 89%
- CCOc1nc(Cc2ccc(Cl)cc2)nc2oc(-c3cc(C)c(OCC(=O)NCCN(C)C)c(C)c3)nc12 [Example 249] — higher, 104%
- CCOc1nc(Cc2ccc(Cl)cc2)nc2oc(-c3cc(C)c(OCC(=O)NCC(=O)OC(C)(C)C)c(C)c3)nc12 [Example 250] — lower, 72%
- CCCOc1nc(Cc2ccc(Cl)cc2)nc2oc(-c3cc(C)c(OCCCC(=O)O)c(C)c3)nc12 [Example 251] — higher, 112%
- CCCOc1nc(Cc2ccc(Cl)cc2)nc2oc(-c3cc(C)c(OCC(=O)NCc4ccco4)c(C)c3)nc12 [Example 252] — higher, 102%
- CCOc1nc(Cc2ccc(Cl)cc2)nc2oc(-c3cc(C)c(OCC(=O)O)c(C)c3)nc12 [Example 253] — lower, 79%
- CCCOc1nc(Cc2ccc(Cl)cc2)nc2oc(-c3cc(C)c(OCC(=O)NCC4CC4)c(C)c3)nc12 [Example 254] — lower, 86%

Same assay, conditions: example compound at 10 μM; relative to 10 μM S1P; GTP-γ-S SPA, human Edg-1 membranes; read-out: % Activation (Edg-1 receptor activation in percent of the activation by 10 μM S1P)

Point of comparison: `CCCOc1nc(Cc2ccc(Cl)cc2)nc2oc(-c3cc(C)c(OCCCN4CCOCC4)c(C)c3)nc12` [Example 200, 5-(4-Chloro-benzyl)-2-[3,5-dimethyl-4-(3-morpholin-4-yl-propoxy)-phenyl]-7-propoxy-oxazolo[5,4-d]pyrimidine], activation at 10 µM 79%. Against it:
- CCOc1nc(Cc2ccc(Cl)cc2)nc2oc(-c3cc(C)c(OCC(=O)NCC(=O)O)c(C)c3)nc12 [Example 240, (2-{4-[5-(4-chloro-benzyl)-7-ethoxy-oxazolo[5,4-d]pyrimidin-2-yl]-2,6-dimethyl-phenoxy}-acetylamino)-acetic acid] — higher, 123%
